Measured values published in patent publication US20260035360A1, “INHIBITORS OF MYC AND USES THEREOF” (Northwestern University, priority 2022, published 2026).

How the values were obtained:
[1] = test system: ATF4; assay: ATF4 protein level in PC3 cells by western blot, 24 hr; assay type: cell-based; settings: Homo sapiens, PC-3, PC3, 24 h, Actin control, read-out: Relative ATF4 protein at 10 μM (fold change, PC3 24 h)
Protocol: (§1) Table 2. Biological data of selected compounds. For IC50 determination. PC3 and PC12 cells were treated with increasing concentrations of the indicated compounds for 72 hrs and cell viability assessed using CellTitreGlo Assay (Promega). For MYC and ATF4 protein level determination. PC3 cells were treated with the indicated compounds for 24 hr sand cell lysates processed for western blot with MYC and ATF4 antibodies using Actin as a control. Quantification analyses were performed by Biorad ChemiDoc Imager and Bio-Rad Image Lab software.

[2] = test system: PC3 cells; assay: PC3 cell viability, CellTitreGlo Assay, 72 hrs; assay type: cell-based; settings: Homo sapiens, PC-3
Protocol: as §1

[3] = Toxicity (weight loss) in tumor-bearing mice; assay type: in vivo; settings: weight loss class
Protocol: (§2) Table 3. Biological data of selected compounds. […] Tumor growth inhibition (TGI) was determined after 14 d.

[4] = test system: PC12 cells; assay: PC12 cell viability, CellTitreGlo Assay, 72 hrs; assay type: cell-based; settings: for IC50: Rattus norvegicus, PC-12
Protocol: as §1

[5] = molecular target: T1, MYC (Homo sapiens, UniProt P01106); assay: MYC protein level in PC3 cells by western blot, 24 hr; assay type: cell-based; settings: PC-3, 24 h, PC3, 24 h, Actin control, read-out: Relative MYC protein at 10 μM (%, PC3 24 h)
T1 construct: endogenous in cells; host or cells: PC3 cells
Protocol: as §1

[6] = Plasma pharmacokinetics after 1 mg/kg PO in female mice; settings: mouse; for half-life: female mice
Protocol: (§3) PK: Plasma levels of compounds were determined after 1 mg/kg dosing PO in female BALB/C mice.
(§4) Plasma levels of compounds were determined after 1 mg/kg dosing PO in female BALB/C mice.

[7] = female, mouse, in vivo, po, 1 mg/kg
Protocol: as §3, §4

[8] = test system: MycCaP;Pten-KO cells; assay: Tumor growth inhibition, MycCaP;Pten-KO subcutaneous allograft in male FVB/N mice; assay type: in vivo; settings: after 14 d; for TGI: QD, Table 7; for Efficacy MycCaP;Pten-ko (TGI @ 100 mg/kg/d po): male FVB/N mice, Table 3
Protocol: as §2
Table 7. Tumor Growth Inhibition data. […] Tumor growth inhibition (TOD was determined after 14 d.

T1 sequence (P01106 whole entry): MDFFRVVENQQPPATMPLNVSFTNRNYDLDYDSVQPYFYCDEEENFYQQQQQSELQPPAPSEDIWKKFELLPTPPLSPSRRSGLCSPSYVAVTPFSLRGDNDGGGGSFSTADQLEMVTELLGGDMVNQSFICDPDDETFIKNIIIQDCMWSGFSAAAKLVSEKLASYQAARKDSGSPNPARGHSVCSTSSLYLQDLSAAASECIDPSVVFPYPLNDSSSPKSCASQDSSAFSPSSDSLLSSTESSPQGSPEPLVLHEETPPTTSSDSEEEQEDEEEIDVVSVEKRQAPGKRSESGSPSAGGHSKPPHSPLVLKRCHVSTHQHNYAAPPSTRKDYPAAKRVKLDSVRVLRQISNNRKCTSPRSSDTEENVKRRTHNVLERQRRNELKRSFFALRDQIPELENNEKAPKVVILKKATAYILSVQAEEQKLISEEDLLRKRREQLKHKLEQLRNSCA

Structure (SMILES): Cn1nc(C(F)(F)F)cc1-c1cc(Cl)c(Oc2ccc(Cl)cc2)c(-c2ccc(Cl)c(C(F)(F)F)c2)c1O [NUCC-0227245]
- fold induction at 10 µM [1]: 20.3 ± 3.7
- IC50 [2]: 0.49 µM
- Toxicity @ 100 mg/kg/d [3]: +++ (+++, >20% weight loss or death)
- IC50 [4]: 3.81 µM
- remaining activity at 10 µM [5]: 37.1 ± 1%

Structure (SMILES): Cn1nc(C(F)(F)F)c(Cl)c1-c1ccc(COc2ccc(Cl)cc2)c(-c2ccc(Cl)c(C(F)(F)F)c2)c1O [NUCC-0226606]
- fold induction at 10 µM [1]: 9.7 ± 1.2
- AUC(0-t) [6]: 15200 ng·h/mL
- Cmax [6]: 841 ng/mL
- Tmax [6]: 12 h
- IC50 [2]: 2.23 µM
- IC50 [4]: 16.6 µM
- AUMC0-t [7]: 177148 h*h*ng/mL
- remaining activity at 10 µM [5]: 38.2 ± 3.9%
- TGI ([8]; 10 mg/kg p.o.): 43.1%
- TGI ([8]; 30 mg/kg p.o.): 56.4%
- TGI ([8]; 100 mg/kg p.o.): 74.6%
- Efficacy MycCaP;Pten-ko (TGI @ 100 mg/kg/d po) [8]: 75

Structure (SMILES): Cn1nc(C(F)(F)F)c(Cl)c1-c1cc(Cl)c(COc2ccc(Cl)cc2)c(-c2ccc(Cl)c(C(F)(F)F)c2)c1O [NUCC-0227037]
- fold induction at 10 µM [1]: 15.1
- AUC(0-inf) [6]: 4200 ng·h/mL
- AUC(0-t) [6]: 4000 ng·h/mL
- Cmax [6]: 202 ng/mL
- MRT inf [6]: 15.8 h
- Tmax [6]: 4 h
- half-life ([6]; T1/2, Table 6, PO 1 mg/kg): 10.7 h
- half-life ([6]; T1/2—range*, Table 6, PO 1 mg/kg): 8 to 48 h
- IC50 [2]: 0.96 µM
- IC50 [4]: 11.1 µM
- AUMC0-t [7]: 53530 h*h*ng/mL
- AUMC0-∞ [7]: 66373 h*h*ng/mL
- remaining activity at 10 µM [5]: 33.6%
- TGI ([8]; 10 mg/kg p.o.): 43.99%
- TGI ([8]; 30 mg/kg p.o.): 57.24%
- TGI ([8]; 100 mg/kg p.o.): 81.48%
- Efficacy MycCaP;Pten-ko (TGI @ 100 mg/kg/d po) [8]: 80

Structure (SMILES): Cc1ncsc1-c1ccc(CNC(=O)[C@@H]2C[C@H](O)CN2C(=O)[C@H](NC(=O)COCCNC(=O)CCOCCCN(C(=O)c2ccc(Cl)c(C(F)(F)F)c2)c2ccc(-c3cc(C(F)(F)F)nn3C)c(O)c2)C(C)(C)C)cc1 [NUCC-0226291]
- fold induction at 10 µM [1]: 1.8
- IC50 [2]: 4 µM
- IC50 [4]: 14.6 µM
- remaining activity at 10 µM [5]: 54.6%

Structure (SMILES): Cn1nc(C(F)(F)F)cc1-c1ccc(-c2ccc(Cl)cc2)c(OCc2ccc(Cl)c(C(F)(F)F)c2)c1O [NUCC-0226652]
- fold induction at 10 µM [1]: 5.2
- IC50 [2]: 4.42 µM
- IC50 [4]: 16.6 µM
- remaining activity at 10 µM [5]: 72.3%

Structure (SMILES): CNc1c(Cl)cc(-c2cc(C(F)(F)F)nn2C)c(O)c1-c1ccc(Cl)c(C(F)(F)F)c1 [NUCC-0226529]
- fold induction at 10 µM [1]: 2.4
- IC50 [2]: 3.1 µM
- IC50 [4]: 19.4 µM
- remaining activity at 10 µM [5]: 41.3%

Structure (SMILES): Cn1nc(C(F)(F)F)cc1-c1cc(Cl)c(CNc2ccc(Cl)cc2)c(-c2ccc(Cl)c(C(F)(F)F)c2)c1O [NUCC-0227062]
- fold induction at 10 µM [1]: 15
- IC50 [2]: 0.964 µM
- IC50 [4]: 2.31 µM
- remaining activity at 10 µM [5]: 40.7%

Structure (SMILES): Cn1nc(C(F)(F)F)cc1-c1c(F)cc(OCc2ccc(Cl)cc2)c(-c2ccc(Cl)c(C(F)(F)F)c2)c1O [NUCC-0226545]
- fold induction at 10 µM [1]: 4.7
- AUC(0-t) [6]: 4760 ng·h/mL
- Cmax [6]: 472 ng/mL
- MRT inf [6]: 7.57 h
- Tmax [6]: 4 h
- half-life ([6]; T1/2, Table 4, PO 1 mg/kg): 4.3 h
- half-life ([6]; T1/2—range*, Table 4, PO 1 mg/kg): 8 to 24 h
- IC50 [2]: 2.2 µM
- IC50 [4]: 10.8 µM
- AUMC0-t [7]: 36107 h*h*ng/mL
- remaining activity at 10 µM [5]: 19.5%

Structure (SMILES): Cn1nc(C(F)(F)F)cc1-c1cc(C(F)(F)F)c(COc2ccc(Cl)cc2)c(-c2ccc(Cl)c(C(F)(F)F)c2)c1O [NUCC-0227244]
- fold induction at 10 µM [1]: 22.8
- IC50 [2]: 0.57 µM
- Toxicity @ 100 mg/kg/d [3]: ++ (++, 15-20% weight loss)
- IC50 [4]: 4.55 µM
- remaining activity at 10 µM [5]: 39.5%

Structure (SMILES): Cn1nc(C(F)(F)F)cc1-c1ccc(Oc2ccc(Cl)cc2)c(-c2ccc(Cl)c(C(F)(F)F)c2)c1O [NUCC-0227247]
- fold induction at 10 µM [1]: 18.3
- IC50 [2]: 1.14 µM
- IC50 [4]: 7.12 µM
- remaining activity at 10 µM [5]: 46.7%

Structure (SMILES): Cn1nc(C(F)(F)F)cc1-c1ccc(COc2ccc(Cl)cc2)c(-c2ccc(Cl)c(C(F)(F)F)c2)c1O [NUCC-0202416]
- fold induction at 10 µM [1]: 9.3
- AUC(0-t) [6]: 5760 ng·h/mL
- Cmax [6]: 244 ng/mL
- Tmax [6]: 8 h
- IC50 [2]: 4.71 µM
- PC12 IC50 [4]: inactive
- AUMC0-t [7]: 88636 h*h*ng/mL
- remaining activity at 10 µM [5]: 38.9%
